Assay results as given in patent EP2253308A1, “Pharmaceutical composition comprising microbubbles for targeted tumor therapy” (Ludwig-Maximilians-Universität München, priority 2009, dated 2010).

Tested on: 293/KDR human kidney carcinoma tissue cultures
Assay: In vitro anti-proliferative efficacy, cell viability assay (formazan absorption) with or without ultrasound
Format: cell-based
Details: effect not affected by the application of ultrasound; 24 hours incubation; % of untreated cells
Protocol: The anti-proliferative efficacy of doxorubicin-loaded microbubbles according to Example 2 was determined in an in vitro experiment using 293/KDR human kidney carcinoma tissue cultures.
First, the cells were cultivated in 10% fetal calf serum activated Dulbecco's Modified Eagle Medium. Prior to the experiment, the cells were brought in suspension by trypsin/EDTA solution. A cell suspension of 200 µl containing about 6 x 10^4 cells was transferred into each well of a 96-well plate (Greiner Bio-One GmbH, Germany) and subsequently admixed with an aqueous solution of either doxorubicin, doxorubicin-loaded liposomes, or doxorubicin-loaded microbubbles (n = 10). The corresponding blank samples were prepared without doxorubicin (see Figure 3). Ultrasound with a frequency of 1 MHz, an intensity of 2 W/cm^2, and a duty cycle of 50% was applied directly onto each well using Sonitron 2000 (Rich-Mar Inc., USA). In order to avoid the presence of standing waves, the well plate was under laid with an absorbing gel pad.
After 24 hours of incubation the cell metabolic activity was measured using a cell viability assay. […] Purple formazan produced by viable cells could be measured by its UV/Vis absorption using FluostarOmega plate reader (BMG Labtech GmbH, Offenburg, Germany) at a wavelength of 590 nm (measurement) and a wavelength of 630 nm (reference). […]

Q: Which cell viability does the source give for COc1cccc2c1C(=O)c1c(O)c3c(c(O)c1C2=O)C[C@@](O)(C(=O)CO)C[C@@H]3O[C@H]1C[C@H](N)[C@H](O)[C@H](C)O1 [free doxorubicin] here?
A: 62-64%
